Results on 23 compounds are retold here after patent US20060264419A1 (priority 2003, published 2006).

One assay deals with T1, 5 HT2C receptor (Homo sapiens, UniProt P28335).
T1 sequence (P28335 33-458): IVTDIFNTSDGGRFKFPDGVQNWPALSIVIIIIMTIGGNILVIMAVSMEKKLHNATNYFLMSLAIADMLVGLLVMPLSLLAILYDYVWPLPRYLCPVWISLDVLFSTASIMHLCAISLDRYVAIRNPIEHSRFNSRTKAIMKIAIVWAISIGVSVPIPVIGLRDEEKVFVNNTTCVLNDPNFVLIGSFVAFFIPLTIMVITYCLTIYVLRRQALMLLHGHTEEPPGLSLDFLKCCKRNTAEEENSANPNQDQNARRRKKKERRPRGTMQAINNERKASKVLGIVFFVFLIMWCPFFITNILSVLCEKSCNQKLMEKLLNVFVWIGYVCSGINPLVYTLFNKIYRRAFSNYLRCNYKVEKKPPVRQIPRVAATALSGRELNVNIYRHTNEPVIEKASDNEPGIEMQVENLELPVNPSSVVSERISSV
The assay is described as follows: affinity to the 5 HT2C receptor. The format is binding.

A further assay addresses 5-HT2A receptors (Rattus norvegicus, UniProt P14842). The assay is described as follows: in-vitro affinity to 5-HT2A receptors, displacement of [3H]ketanserine (Example A1). Particulars: read-out: HT2A IC50. It is filed as binding. The text has this: The 5-HT2A receptors are exposed both to [^3H]ketanserine (a substance which is known for its affinity to the receptor) and also to the test compound. The decrease in the affinity of [^3H]ketanserine to the receptor is an indication of the affinity of the test substance to the 5-HT2A receptor.
A general note: In a radioligand displacement assay an active substance lowers the binding of a labelled ligand.

Chain of 5-HT2A receptors (P14842 whole entry): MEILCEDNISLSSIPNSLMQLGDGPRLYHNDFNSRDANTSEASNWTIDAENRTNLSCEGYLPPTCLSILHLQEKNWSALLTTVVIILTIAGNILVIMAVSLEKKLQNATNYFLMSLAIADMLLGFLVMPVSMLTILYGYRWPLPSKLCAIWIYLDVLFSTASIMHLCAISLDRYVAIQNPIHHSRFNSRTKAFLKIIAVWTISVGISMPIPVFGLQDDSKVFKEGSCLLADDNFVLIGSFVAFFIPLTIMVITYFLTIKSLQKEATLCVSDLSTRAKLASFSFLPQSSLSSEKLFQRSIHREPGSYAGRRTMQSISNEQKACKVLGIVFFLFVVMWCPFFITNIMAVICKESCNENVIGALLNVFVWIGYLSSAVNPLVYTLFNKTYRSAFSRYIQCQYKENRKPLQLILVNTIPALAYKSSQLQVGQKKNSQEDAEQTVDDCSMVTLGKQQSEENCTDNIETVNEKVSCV

Broadly, the IC50 is the concentration at which inhibition is half-maximal. Turning to `CN1CCN(CCc2cnn(-c3ccc(-c4ccc(F)cc4)cc3)c2-c2ccccc2F)CC1` [Example 921, 1-{2-[1-(4′-Fluorobiphenyl-4-yl)-5-(2-fluoro-phenyl)-1H-pyrazol-4-yl]ethyl}-4-methylpiperazine], the IC50 against 5 HT2C receptor came to 0.73 µM; at 5-HT2A receptors, 0.0233 µM.
With `CN1CCN(Cc2cnn(-c3ccc(-n4cccc4)cc3)c2-c2ccccc2F)CC1` [Example 909, 1-[5-(2-Fluorophenyl)-1-(4-pyrrol-1-ylphenyl)-1H-pyrazol-4-ylmethyl]-4-methylpiperazine], the IC50 against 5 HT2C receptor turned out to be 0.21 µM; at 5-HT2A receptors it was 0.017 µM.
The matching figures for `CCN1CCN(Cc2cnn(-c3ccc(-c4ccc(F)cc4)cc3)c2-c2ccc(Cl)cc2)CC1` [Example 1037, 1-[5-(4-Chlorophenyl)-1-(4′-fluoro-biphenyl-4-yl)-1H-pyrazol-4-ylmethyl]-4-ethylpiperazine]: 1 µM and 0.31 µM.
The matching figures for `CN1CCN(Cc2cnn(-c3ccc(-c4ccc(F)c(F)c4)cc3)c2-c2ccccc2F)CC1` [Example 960, 1-[1-(3′,4′-Difluorobiphenyl-4-yl)-5-(2-fluoro-phenyl)-1H-pyrazol-4-ylmethyl]-4-methyl-piperazine]: 0.34 µM and 0.06 µM.
The matching figures for `CN1CC2CC1CN2Cc1cnn(-c2ccc(-c3ccccc3)cc2)c1-c1ccccc1F` (stereo not shown) [Example 977, 2-[1-Biphenyl-4-yl-5-(2-fluorophenyl)-1H-pyrazol-4-ylmethyl]-5-methyl-2,5-diazabicyclo-[2.2.1]heptane]: 0.68 µM and 0.094 µM.
On to `CN1CCN(Cc2cnn(-c3ccc(C(F)(F)F)cn3)c2-c2ccccc2F)CC1` [Example 941, 1-[5-(2-Fluorophenyl)-1-(5-trifluoro-methylpyridin-2-yl)-1H-pyrazol-4-ylmethyl]-4-methyl-piperazine], for which the figures for the IC50 against 5 HT2C receptor and on 5-HT2A receptors were 1 µM and 0.039 µM, respectively.
On the same counts, the results for `CN(C)CCN(C)Cc1cnn(-c2ccc(-c3ccc(F)cc3)cc2)c1-c1ccc(Cl)cc1` [Example 1024, N-[5-(4-Chlorophenyl)-1-(4′-fluoro-biphenyl-4-yl)-1H-pyrazol-4-ylmethyl]-N,N′,N′-trimethyl-ethane-1,2-diamine] are 1 µM and 0.24 µM.
On the same counts, the results for `CN1CCN(Cc2cnn(-c3ccc(-c4cc(F)ccc4F)cc3)c2-c2ccc(F)cc2)CC1` [Example 1021, 1-[1-(2′,5′-Difluorobiphenyl-4-yl)-5-(4-fluoro-phenyl)-1H-pyrazol-4-ylmethyl]-4-methyl-piperazine] are 1 µM and 0.24 µM.
The matching figures for `CN1CCN(Cc2cnn(-c3ccc(-c4ccsc4)cc3)c2-c2ccco2)CC1` [Example 891, 1-[5-Furan-2-yl-1-(4-thiophen-3-ylphenyl)-1H-pyrazol-4-ylmethyl]-4-methylpiperazine]: 0.21 µM and 0.0045 µM.
With `CN(C)CCN(C)Cc1cnn(-c2ccc(-c3ccc(F)cc3)cc2)c1-c1ccccc1Cl` [Example 946, N-[5-(2-chlorophenyl)-1-(4′-fluoro-biphenyl-4-yl)-1H-pyrazol-4-ylmethyl]-N,N′,N′-trimethyl-ethane-1,2-diamine], the IC50 against 5 HT2C receptor was 0.49 µM; at 5-HT2A receptors, 0.044 µM.
On the same counts, the results for `CN1CCN(Cc2cnn(-c3ccc(-c4ccccc4)cc3)c2-c2ccccn2)CC1` [Example 949, 1-(1-Biphenyl-4-yl-5-pyridin-2-yl-1H-pyrazol-4-ylmethyl)-4-methylpiperazine] are 1 µM and 0.05 µM.
On the same counts, the results for `COc1ccccc1-c1c(CN2CCN(C)CC2)cnn1-c1ccc(-c2ccsc2)cc1` [Example 1055, 1-[5-(2-Methoxyphenyl)-1-(4-thiophen-3-yl-phenyl)-1H-pyrazol-4-ylmethyl]-4-methyl-piperazine] are 0.3 µM and 0.46 µM.
For the compound `Fc1ccccc1-c1c(CCN2CCOCC2)cnn1-c1ccc(-c2ccccc2)cc1` [Example 898, 4-{2-[1-Biphenyl-4-yl-5-(2-fluoro-phenyl)-1H-pyrazol-4-yl]ethyl}morpholine], the IC50 against 5 HT2C receptor was 1 µM; at 5-HT2A receptors, 0.012 µM.
On to `CN1CCN(Cc2cnn(-c3ccc(-c4ccccc4)cn3)c2-c2ccccc2F)CC1` [Example 922, 1-[5-(2-Fluorophenyl)-1-(5-phenyl-pyridin-2-yl)-1H-pyrazol-4-ylmethyl]-4-methylpiperazine], for which the results for the IC50 on 5 HT2C receptor and at 5-HT2A receptors were 0.66 µM and 0.024 µM, respectively.
The matching figures for `CN1CCN(Cc2cnn(-c3ccc(-c4ccc(F)cc4)cc3)c2-c2ccc(F)cc2)CC1` [Example 923, 1-[1-(4′-Fluorobiphenyl-4-yl)-5-(4-fluoro-phenyl)-1H-pyrazol-4-ylmethyl]-4-methylpiperazine]: 0.75 µM and 0.025 µM.
On the same counts, the results for `CN(C)CCN(C)Cc1cnn(-c2ccc(-c3ccccc3)cc2)c1-c1ccccc1F` [Example 912, N-[1-Biphenyl-4-yl-5-(2-fluorophenyl)-1H-pyrazol-4-ylmethyl]-N,N′,N′-trimethylethane-1,2-diamine] are 0.92 µM and 0.02 µM.
On the same counts, the results for `CN(CCO)Cc1cnn(-c2ccc(-c3ccccc3)cc2)c1-c1ccccc1F` [Example 906, 2-{[1-Biphenyl-4-yl-5-(2-fluorophenyl)-1H-pyrazol-4-ylmethyl]methylamino}ethanol] are 1 µM and 0.016 µM.
Regarding `CN(C)Cc1cnn(-c2ccc(C(F)(F)F)cn2)c1-c1ccccc1F` [Example 937, [5-(2-Fluorophenyl)-1-(5-trifluoro-methylpyridin-2-yl)-1H-pyrazol-4-ylmethyl]dimethylamine], the IC50 against 5 HT2C receptor was found to be 1 µM; at 5-HT2A receptors, 0.035 µM.
On the same counts, the results for `COc1ccc(-c2ccc(-n3ncc(CN4CCN(C)CC4)c3-c3ccccc3F)cc2)cc1` [Example 895, 1-[5-(2-Fluorophenyl)-1-(4′-methoxy-biphenyl-4-yl)-1H-pyrazol-4-ylmethyl]-4-methyl-piperazine] are 1.15 µM and 0.0075 µM.
The matching figures for `OC1CCN(Cc2cnn(-c3ccc(-c4ccc(F)cc4)cc3)c2-c2ccc(Cl)cc2)C1` (stereo not shown) [Example 1003, 1-[5-(4-Chlorophenyl)-1-(4′-fluoro-biphenyl-4-yl)-1H-pyrazol-4-ylmethyl]pyrrolidin-3-ol]: 1 µM and 0.17 µM.
On the same counts, the results for `CN1CCN(Cc2cnn(-c3ccc(-c4ccc(F)cc4)cc3)c2-c2ccccc2F)CC1` [Example 902, 1-[1-(4′-Fluorobiphenyl-4-yl)-5-(2-fluoro-phenyl)-1H-pyrazol-4-ylmethyl]-4-methyl-piperazine] are 0.215 µM and 0.0131 µM.
Take `Fc1ccccc1-c1c(CN2CCNCC2)cnn1-c1ccc(-c2ccccc2)cc1` [Example 924, 1-[1-Biphenyl-4-yl-5-(2-fluorophenyl)-1H-pyrazol-4-ylmethyl]piperazine]: the IC50 at 5 HT2C receptor was 0.66 µM; at 5-HT2A receptors, 0.026 µM.
On to `Fc1ccccc1-c1c(CN2CCNCC2)cnn1-c1ccc(C(F)(F)F)cc1` [Example 944, 1-[5-(2-Fluorophenyl)-1-(4-trifluoro-methyl-phenyl)-1H-pyrazol-4-ylmethyl]piperazine], for which the IC50 turned out to be 0.79 µM against 5 HT2C receptor and 0.043 µM at 5-HT2A receptors.
